Measured values: patent publication US5573999A, “β-substituted cinnamic acid derivative” (BASF Aktiengesellschaft, priority 1991, dated 1996)

Assays:
[1] = test system: wheat mildew (Erysiphe graminis var. tritici); assay: Activity against wheat mildew on wheat seedlings; format: in vivo; details: aqueous dispersion containing 250 ppm active ingredient, assessed after 7 days
Procedure: Leaves of pot-grown wheat seedlings of the Fruhgold variety were sprayed with an aqueous liquor which contained 80% of active ingredient and 20% of emulsifier in dry matter and, 24 hours after the sprayed-on layer had dried, were dusted with spores of wheat mildew (Erysiphe graminis var. tritici). The test plants were then placed in a greenhouse at from 20° to 22° C. and from 75 to 80% relative humidity. The extent of mildew spread was assessed after 7 days.

[2] = test system: mitochondrial respiration; assay: Inhibition of mitochondrial respiration (rate of reduction of cytochrome c in isolated mitochondria), yeast; format: biochemical, Saccharomyces cerevisiae; details: DMSO control
From the text: In order to determine the effect of the compounds according to the invention on mitochondrial respiration it is first necessary to isolate the mitochondria from the organisms being investigated. For this, in the case of the yeast Saccharomyces cerevisiae, the cells in a 30 to 40% strength suspension of the yeast in an aqueous solution of 0.6M mannitol+0.01M tris[hydroxymethyl]-aminomethane+0.002M disodium ethylenediaminetetraacetate (pH 6.8) are disrupted in a glass bead mill, and the extract is fractionated by differential centrifugation at 1000× g and 12000× g. The mitochondria are in the pellet from the 12000× g centrifugation.
(§1) Used as control is a mixture with the equivalent amount of pure DMSO. The inhibition at the concentration of agent in each case is then calculated as follows [formula] where ΔE is the change in extinction, at is the change in time, [formula] is the reaction rate for the control and [formula] is the reaction rate for the sample x.
(§2) The inhibition was determined in each case at a test substance concentration of 1.8/10^-5mol/l .

[3] = test system: mitochondrial respiration; assay: Inhibition of mitochondrial respiration (rate of reduction of cytochrome c in isolated mitochondria), house fly; format: biochemical, Musca domestica; details: DMSO control
From the text: It is also possible similarly to isolate mitochondria from other organisms, e.g. from the phytopathogenic fungus Drechslera sorokiniana (synonym: Helminthosporium sativum), from the dermatophyte Trichophyton mentagrophytes, which is a human pathogen, and, for example, from the house fly (Musca domestica) as insect or from the spider mite Tetranychus urticae.
as §1, §2

Plasmopara viticola = assay: Activity against Plasmopara viticola on potted vines; format: in vivo; details: aqueous dispersion containing 250 ppm active ingredient, infected 8 days after spraying
Procedure: Leaves of potted vines of the Muller Thurgau variety were sprayed with an aqueous liquor which contained 80% of active ingredient and 20% of emulsifier in dry matter. To assess the duration of action of the active ingredient, after the sprayed-on layer had dried the plants were placed in a greenhouse for 8 days. The leaves were then infected with a suspension of Plasmopara viticola zoospores. The vines were then placed first in a chamber saturated with water vapor at 24° C. for 48 hours and then in a greenhouse at from 20° to 30° C. for 5 days. After this, to speed up sporangiophore discharge, the plants were again placed in the humidity chamber for 16 hours. The extent of fungus attack was then assessed on the undersides of the leaves.

## COC(=O)/C=C(/OC)c1ccccc1COc1ccccc1C [Compound 1a.2]
[1]
  fungal attack, wheat mildew: 15%
[2]
  % inhibition of respiration at 1.8 × 10^-5 mol/l test substance, Saccharomyces cerevisiae: 88%
[3]
  % inhibition of respiration at 1.8 × 10^-5 mol/l test substance, Musca domestica: 21%

## COC(=O)/C=C(/OC)c1ccccc1COc1ccc(Oc2ccccc2)cc1 [Compound 1a.31]
Plasmopara viticola
  fungal attack, Plasmopara viticola: 10%

## CON=Cc1cccc(OCc2ccccc2/C(=C\C(=O)OC)OC)c1 [Compound 1a.62]
Plasmopara viticola
  fungal attack, Plasmopara viticola: 10%
[2]
  % inhibition of respiration at 1.8 × 10^-5 mol/l test substance, Saccharomyces cerevisiae: 87%
[3]
  % inhibition of respiration at 1.8 × 10^-5 mol/l test substance, Musca domestica: 74%

## CC/C(=C/C(=O)OC)c1ccccc1COc1ccccc1C [Compound 1a.110]
Plasmopara viticola
  fungal attack, Plasmopara viticola: 10%
[3]
  % inhibition of respiration at 1.8 × 10^-5 mol/l test substance, Musca domestica: 12%

## COC(=O)/C=C(/OC)c1ccccc1COc1nc(-c2ccccc2)sc1C [Compound 1a.182]
Plasmopara viticola
  fungal attack, Plasmopara viticola: 10%
[2]
  % inhibition of respiration at 1.8 × 10^-5 mol/l test substance, Saccharomyces cerevisiae: 98%

## COC(=O)/C=C(/OC)c1ccccc1/C=C\c1ccccc1[N+](=O)[O-] [Compound 1a.239]
[1]
  fungal attack, wheat mildew: 15%
[2]
  % inhibition of respiration at 1.8 × 10^-5 mol/l test substance, Saccharomyces cerevisiae: 44%
[3]
  % inhibition of respiration at 1.8 × 10^-5 mol/l test substance, Musca domestica: 16%

## COC(=O)/C=C(/OC)c1ccccc1/C=C/c1cccc([N+](=O)[O-])c1 [Compound 1a.240]
[2]
  % inhibition of respiration at 1.8 × 10^-5 mol/l test substance, Saccharomyces cerevisiae: 94%
[3]
  % inhibition of respiration at 1.8 × 10^-5 mol/l test substance, Musca domestica: 84%

## COC(=O)/C=C(/OC)c1ccccc1/C=C\c1cccc([N+](=O)[O-])c1 [Compound 1a.241]
[2]
  % inhibition of respiration at 1.8 × 10^-5 mol/l test substance, Saccharomyces cerevisiae: 20%
[3]
  % inhibition of respiration at 1.8 × 10^-5 mol/l test substance, Musca domestica: 9%

## COC(=O)/C=C(/OC)c1ccccc1/C=C\c1ccccc1C(F)(F)F [Compound 1a.244]
[2]
  % inhibition of respiration at 1.8 × 10^-5 mol/l test substance, Saccharomyces cerevisiae: 65%
[3]
  % inhibition of respiration at 1.8 × 10^-5 mol/l test substance, Musca domestica: 50%

## COC(=O)/C=C(/OC)c1ccccc1/C=C/c1cccc(C(F)(F)F)c1 [Compound 1a.245]
[1]
  fungal attack, wheat mildew: 15%
[2]
  % inhibition of respiration at 1.8 × 10^-5 mol/l test substance, Saccharomyces cerevisiae: 98%
[3]
  % inhibition of respiration at 1.8 × 10^-5 mol/l test substance, Musca domestica: 91%

## COC(=O)/C=C(/OC)c1ccccc1/C=C\c1cccc(C(F)(F)F)c1 [Compound 1a.246]
[1]
  fungal attack, wheat mildew: 15%
[2]
  % inhibition of respiration at 1.8 × 10^-5 mol/l test substance, Saccharomyces cerevisiae: 84%
[3]
  % inhibition of respiration at 1.8 × 10^-5 mol/l test substance, Musca domestica: 81%

## COC(=O)/C=C(/OC)c1ccccc1/C=C/c1cccc(Oc2ccccc2)c1 [Compound 1a.271]
[2]
  % inhibition of respiration at 1.8 × 10^-5 mol/l test substance, Saccharomyces cerevisiae: 92%
[3]
  % inhibition of respiration at 1.8 × 10^-5 mol/l test substance, Musca domestica: 94%

## COC(=O)/C=C(/OC)c1ccccc1/C=C\c1cccc(Oc2ccccc2)c1 [Compound 1a.272]
[2]
  % inhibition of respiration at 1.8 × 10^-5 mol/l test substance, Saccharomyces cerevisiae: 51%
[3]
  % inhibition of respiration at 1.8 × 10^-5 mol/l test substance, Musca domestica: 78%

## COC(=O)/C=C(/OC)c1ccccc1/C=C/c1cc[nH]c1 [Compound 1a.288]
[2]
  % inhibition of respiration at 1.8 × 10^-5 mol/l test substance, Saccharomyces cerevisiae: 50%
[3]
  % inhibition of respiration at 1.8 × 10^-5 mol/l test substance, Musca domestica: 22%

## COC(=O)/C=C(/OC)c1ccccc1/C=C/c1ccco1 [Compound 1a.290]
[1]
  fungal attack, wheat mildew: 15%
[2]
  % inhibition of respiration at 1.8 × 10^-5 mol/l test substance, Saccharomyces cerevisiae: 98%
[3]
  % inhibition of respiration at 1.8 × 10^-5 mol/l test substance, Musca domestica: 86%

## COC(=O)/C=C(/OC)c1ccccc1/C=C\c1ccoc1 [Compound 1a.293]
[2]
  % inhibition of respiration at 1.8 × 10^-5 mol/l test substance, Saccharomyces cerevisiae: 65%
[3]
  % inhibition of respiration at 1.8 × 10^-5 mol/l test substance, Musca domestica: 27%

## COC(=O)/C=C(/OC)c1ccccc1/C=C/c1cccs1 [Compound 1a.294]
[1]
  fungal attack, wheat mildew: 15%
[2]
  % inhibition of respiration at 1.8 × 10^-5 mol/l test substance, Saccharomyces cerevisiae: 98%
[3]
  % inhibition of respiration at 1.8 × 10^-5 mol/l test substance, Musca domestica: 95%

## COC(=O)/C=C(/OC)c1ccccc1/C=C\c1cccs1 [Compound 1a.295]
[2]
  % inhibition of respiration at 1.8 × 10^-5 mol/l test substance, Saccharomyces cerevisiae: 94%
[3]
  % inhibition of respiration at 1.8 × 10^-5 mol/l test substance, Musca domestica: 76%

## COC(=O)/C=C(/OC)c1ccccc1/C=C\c1ccsc1 [Compound 1a.297]
[2]
  % inhibition of respiration at 1.8 × 10^-5 mol/l test substance, Saccharomyces cerevisiae: 70%
[3]
  % inhibition of respiration at 1.8 × 10^-5 mol/l test substance, Musca domestica: 22%

## COC(=O)/C=C(/OC)c1ccccc1/C=C/c1cc(-c2ccc(Cl)cc2)no1 [Compound 1a.300]
[2]
  % inhibition of respiration at 1.8 × 10^-5 mol/l test substance, Saccharomyces cerevisiae: 98%
[3]
  % inhibition of respiration at 1.8 × 10^-5 mol/l test substance, Musca domestica: 93%

## COC(=O)/C=C(/OC)c1ccccc1/C=C\c1coc(-c2ccc(Cl)cc2)n1 [Compound 1a.303]
[2]
  % inhibition of respiration at 1.8 × 10^-5 mol/l test substance, Saccharomyces cerevisiae: 98%
[3]
  % inhibition of respiration at 1.8 × 10^-5 mol/l test substance, Musca domestica: 86%

## COC(=O)/C=C(/OC)c1ccccc1/C=C/c1ccn(-c2ccc(Cl)cc2)c1 [Compound 1a.304]
[1]
  fungal attack, wheat mildew: 15%
[2]
  % inhibition of respiration at 1.8 × 10^-5 mol/l test substance, Saccharomyces cerevisiae: 97%
[3]
  % inhibition of respiration at 1.8 × 10^-5 mol/l test substance, Musca domestica: 96%

## COC(=O)/C=C(/OC)c1ccccc1/C=C\c1ccn(-c2ccc(Cl)cc2)c1 [Compound 1a.305]
[2]
  % inhibition of respiration at 1.8 × 10^-5 mol/l test substance, Saccharomyces cerevisiae: 30%
[3]
  % inhibition of respiration at 1.8 × 10^-5 mol/l test substance, Musca domestica: 39%

## COC(=O)/C=C(/OC)c1ccccc1/C=C/c1csc(-c2ccccc2)n1 [Compound 1a.306]
[2]
  % inhibition of respiration at 1.8 × 10^-5 mol/l test substance, Saccharomyces cerevisiae: 98%
[3]
  % inhibition of respiration at 1.8 × 10^-5 mol/l test substance, Musca domestica: 96%

## COC(=O)/C=C(/OC)c1ccccc1/C=C\c1csc(-c2ccccc2)n1 [Compound 1a.307]
[2]
  % inhibition of respiration at 1.8 × 10^-5 mol/l test substance, Saccharomyces cerevisiae: 58%
[3]
  % inhibition of respiration at 1.8 × 10^-5 mol/l test substance, Musca domestica: 71%

## COC(=O)/C=C(/OC)c1ccccc1/C=C/c1nc(-c2ccc(F)cc2)no1 [Compound 1a.310]
Plasmopara viticola
  fungal attack, Plasmopara viticola: 10%
[2]
  % inhibition of respiration at 1.8 × 10^-5 mol/l test substance, Saccharomyces cerevisiae: 99%

## COC(=O)/C=C(/OC)c1ccccc1/C=C/c1csc(-c2ccc(C)cc2)n1 [Compound 1a.312]
Plasmopara viticola
  fungal attack, Plasmopara viticola: 10%
[2]
  % inhibition of respiration at 1.8 × 10^-5 mol/l test substance, Saccharomyces cerevisiae: 99%

## COC(=O)/C=C(/OC)c1ccccc1/C=C/c1cnn(-c2ccc(OC)cc2)c1 [Compound 1a.318]
Plasmopara viticola
  fungal attack, Plasmopara viticola: 10%
[2]
  % inhibition of respiration at 1.8 × 10^-5 mol/l test substance, Saccharomyces cerevisiae: 98%

## COC(=O)/C=C(/OC)c1ccccc1/C=C\c1cnn(-c2ccc(Cl)cc2)c1 [Compound 1a.321]
Plasmopara viticola
  fungal attack, Plasmopara viticola: 10%
[2]
  % inhibition of respiration at 1.8 × 10^-5 mol/l test substance, Saccharomyces cerevisiae: 19%

## COC(=O)/C=C(/OC)c1ccccc1/C=C\c1noc(-c2ccc(Cl)cc2)c1C [Compound 1a.323]
Plasmopara viticola
  fungal attack, Plasmopara viticola: 10%
[2]
  % inhibition of respiration at 1.8 × 10^-5 mol/l test substance, Saccharomyces cerevisiae: 99%

## COC(=O)/C=C(/OC)c1ccccc1/C=C/c1csc(-c2ccc(F)cc2)n1 [Compound 1a.394, methyl 2-{2-[2-(4-fluorophenyl)-4-thiazolyl]-(E)-ethenyl}-(E)-β-methoxycinnamate]
Plasmopara viticola
  fungal attack, Plasmopara viticola: 10%
[2]
  % inhibition of respiration at 1.8 × 10^-5 mol/l test substance, Saccharomyces cerevisiae: 96%
[3]
  % inhibition of respiration at 1.8 × 10^-5 mol/l test substance, Musca domestica: 99%

## COC(=O)/C=C(/OC)c1ccccc1/C=C/c1ccc(C(F)(F)F)cc1 [Compound 1a.519]
[2]
  % inhibition of respiration at 1.8 × 10^-5 mol/l test substance, Saccharomyces cerevisiae: 97%
[3]
  % inhibition of respiration at 1.8 × 10^-5 mol/l test substance, Musca domestica: 89%
